Laboratory results reported in patent US20250282757A1, “ARYL ETHER-SUBSTITUTED HETEROCYCLIC COMPOUNDS AS GLP1R AGONISTS” (MINDRANK AI LTD., priority 2021, published 2025).

Experiments:
GLP-1R = GLP-1R (Homo sapiens, UniProt P43220); assay: Agonist activity on GLP-1R, HTRF cAMP detection in stably transfected GLP-1R/HEK293 cells; assay type: cell-based
[1] = Pharmacokinetic study in mice; assay type: in vivo, CD-1 mice; conditions: for AUC(0-inf): read-out: AUC0-inf; for half-life: read-out: T½ (converted)
Description: The pharmacokinetic properties of some compounds of the present invention were evaluated in mice pharmacokinetic experiments. SPF male CD-1 mice from Beijing Vital River Laboratory Animal Technology Co., Ltd were used with 6 mice in each group. Compounds were dissolved in 10% solutol/90% saline. A single intravenous administration was given at a dose of 1 mg/kg in a volume of 1 mL/kg. A single intragastric administration was given at a dose of 5 mg/kg in a volume of 1 mL/kg. Animals were fasted overnight prior to the administration and resumed feeding 4 hours after administration, ad libitum to water. Blood was collected at 0.0830, 0.25, 0.5, 1, 2, 4, 6, 8 and 24 hours after dosing. About […] of whole blood was collected from the saphenous vein of animals and placed in an EDTA-K2 anticoagulation tube. The samples were centrifuged at 4° C. and 4200 rpm for 5 min, and the plasma was transferred into a centrifuge tube and stored at −80° C. until analysis. For plasma sample analysis, the test compounds and internal standards (Labetalol & tolbutamide & Verapamil & dexamethasone & glyburide & Celecoxib) were extracted from mice plasma by protein precipitation method with acetonitrile, and the extracts were analyzed by LC/MS/MS. The measured plasma concentration-time data of individual animals were analyzed with the non-compartmental model of Phoenix WinNonlin 7.0 (Pharsight, USA) software, and the pharmacokinetic parameters of mice were obtained as follows: maximum (peak) plasma drug concentration Cmax; Peak time Tmax; half-life T1/2 and area under the plasma concentration-time curve extrapolated to infinity AUC0-inf.

[2] = Pharmacokinetic study in monkeys; assay type: in vivo, cynomolgus monkeys; conditions: for AUC(0-inf): read-out: AUC0-inf; for half-life: read-out: T½ (converted)
Description: The pharmacokinetic properties of compounds of the present invention were evaluated in monkey pharmacokinetic experiments with 3 male Non-naive cynomolgus monkeys per group. Compounds were dissolved in 10% solutol/90% saline. For single intravenous administration, the dose was 1 mg/kg, and the administration volume was 1 mL/kg. For single intragastric administration, the dose was 5 mg/kg, and the administration volume was 1 mL/kg. Animals were fasted overnight with free water before the experiment and resumed feeding 4 hours after administration. Blood was collected at 0.0830, 0.25, 0.5, 1, 2, 4, 6, 8 and 24 hours after dosing. About 0.4 mL of whole blood was collected from the animal's forearm vein and placed in an EDTA-K2 anticoagulant tube. The samples were centrifuged at 4° C. and 4200 rpm for 5 min, and the plasma was transferred to a centrifuge tube and stored at −80° C. until analysis. For plasma sample analysis, the test compounds and internal standards (Labetalol & tolbutamide & Verapamil & dexamethasone & glyburide & Celecoxib) were extracted from monkey plasma by protein precipitation method with acetonitrile, and the extracts were analyzed by LC/MS/MS. Measured plasma concentration-time data in individual animals were analyzed using the non-compartmental model of Phoenix WinNonlin 7.0 (Pharsight, USA) software to obtain the following pharmacokinetic parameters: maximum (peak) plasma drug concentration Cmax; time to peak Tmax; Half-life T1/2 and area under the plasma concentration-time curve extrapolated to infinity AUC0-inf.

cynomolgus monkeys = assay: Intravenous glucose tolerance (IVGTT) experiment in cynomolgus monkey; assay type: in vivo
Description: The compounds were dissolved in 10% Solutol HS15+90% Saline by vortex ultrasound. Vehicle was 10% Solutol HS15+90% Saline.
Male cynomolgus monkeys, 10-15 years old, weighing 6-13 kg. Healthy animals were selected for efficacy studies according to alanine aminotransferase (ALT), aspartate aminotransferase (AST), triglyceride (TG), total cholesterol (TC), high density lipoprotein (HDL), low density lipoprotein (LDL), glycosylated hemoglobin (HbA1c), body weight (BW).
After 1 week of acclimation, the IVGTT baseline before administration was measured, and the animals were grouped according to the insulin and blood glucose results of the IVGTT. The detailed information of treatment was as follows:
IVGTT was started after 2 hours post of compound dosing. Blood were collected-at −15 min, 0 min (before sugar administration), and 2, 5, 7, 10, 20, and 30 min after sugar administration. And the blood glucose level were measured.
Data was analyzed by Graphpad Prism 6 and the statistical method was one-way ANOVA Dunnett's test. Compared with the vehicle group, p<0.05 was considered significant difference. * means p<0.05, ** means p<0.01, *** means p<0.001.

[3] = mouse, plasma, male CD-1 mice, 1 mg/kg iv
[4] = mouse, plasma, male CD-1 mice, 5 mg/kg po
[5] = cynomolgus monkey, plasma, male cynomolgus monkeys, 1 mg/kg iv
[6] = cynomolgus monkey, plasma, male cynomolgus monkeys, 5 mg/kg po

Chain of GLP-1R (P43220 24-463): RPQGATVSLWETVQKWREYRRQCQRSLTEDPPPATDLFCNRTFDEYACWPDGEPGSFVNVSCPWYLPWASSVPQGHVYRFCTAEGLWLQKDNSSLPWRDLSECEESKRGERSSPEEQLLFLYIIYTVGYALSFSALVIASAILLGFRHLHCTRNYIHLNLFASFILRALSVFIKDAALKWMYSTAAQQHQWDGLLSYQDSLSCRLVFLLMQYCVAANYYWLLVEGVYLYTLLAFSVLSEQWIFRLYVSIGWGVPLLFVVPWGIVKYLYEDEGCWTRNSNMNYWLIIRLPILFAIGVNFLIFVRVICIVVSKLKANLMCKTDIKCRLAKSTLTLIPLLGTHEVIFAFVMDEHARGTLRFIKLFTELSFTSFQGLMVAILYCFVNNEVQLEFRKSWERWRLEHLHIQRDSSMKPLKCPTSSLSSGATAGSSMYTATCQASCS

`O=C(O)c1ccc2nc(CN3CCC(Oc4cccc(COc5ccc(Cl)cc5F)n4)CC3)n(C[C@@H]3CCO3)c2c1` [Compound 49, (S)-2-((4-((6-((4-chloro-2-fluorophenoxy)methyl)pyridin-2-yl)oxy)piperidin-1-yl)methyl)-1-(oxetan-2-ylmethyl)-1H-benzo[d]imidazole-6-carboxylic acid] showed an EC50 (GLP-1R; 30 min incubation) of 0.193 nM, a Max activity (GLP-1R; relative to top concentration of reference GLP-1(7-37)) of 129.3% and an F ([1]; male CD-1 mice, 5 mg/kg po) of 20.7%. The “clearance rate compared with PF-06882961” value ([1]; mice) was “lower clearance rates”, the “exposure compared with PF-06882961” value ([1]; mice) was “higher exposure” and the clearance [1, 3] was 12 mL/min/kg. The AUC(0-inf) [1, 3] was 1350 ng·h/mL, the half-life [1, 3] was 1 h and the Vd ([1]; mouse, plasma, male CD-1 mice, 1 mg/kg iv, read-out: Vdss) was 1 L/kg. It also gave an AUC(0-inf) [1, 4] of 1760 ng·h/mL, a Cmax ([1]; mouse, plasma, male CD-1 mice, 5 mg/kg po, read-out: Cmax) of 515 ng/mL and a half-life [1, 4] of 3.2 h. It also gave a clearance [2, 5] of 7.26 mL/min/kg, an AUC(0-inf) [2, 5] of 2380 ng·h/mL and a half-life [2, 5] of 1.34 h. It also gave a Vd ([2]; cynomolgus monkey, plasma, male cynomolgus monkeys, 1 mg/kg iv, read-out: Vdss) of 0.29 L/kg, an AUC(0-inf) [2, 6] of 1240 ng·h/mL and a Cmax ([2]; cynomolgus monkey, plasma, male cynomolgus monkeys, 5 mg/kg po, read-out: Cmax) of 235 ng/mL. For the same compound, the half-life [2, 6] was 4.01 h, the F ([2]; male cynomolgus monkeys, 5 mg/kg po) was 10.4% and the “clearance rate compared with PF-06882961” value ([2]; monkeys) was “lower clearance rates”. For the same compound, the “exposure compared with PF-06882961” value ([2]; monkeys) was “higher exposure”, the “half-life compared with PF-06882961” value ([2]; monkeys) was “greater” and the “blood glucose level in IVGTT” value (cynomolgus monkeys; 60 mg/kg po dose group) was “significant hypoglycemic effect”. For the same compound, the “effect on blood glucose compared with PF-06882961” value (cynomolgus monkeys; 100 mg/kg po, IVGTT) was “slightly more effective” and the “blood glucose level in IVGTT” value (cynomolgus monkeys; single oral dose of 100 mg/kg, IVGTT 2 hours after dosing) was “significantly lower the blood glucose level”.
